In patent US9670227B2, “Thienopyrimidine derivatives, a process for their preparation and pharmaceutical compositions containing them” (LES LABORATOIRES SERVIER, priority 2013, dated 2017) one finds IC50 data, which are given here for 15 compounds.

Structures are written as SMILES. Read-outs that look alike come from different tables or passages of the source.

Assay [1] concerns the target Mcl-1 protein (UniProtKB primary accession number: Q07820) (Homo sapiens, UniProt Q07820). Kind of assay: Inhibition of Mcl-1 by fluorescence polarisation, Method 1. Type of assay: binding. The following applies: read-out: IC50 (M) Mcl-1 FP. Put shortly: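 Fluorescence polarisation competition with an 11-point compound dilution series (final DMSO 5%). Mcl-1 protein at 5 nM and fluorescein-labelled ligand at 1 nM (final) in 10 mM HEPES, 150 mM NaCl, 0.05% Tween 20, pH 7.4.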
A general note: In fluorescence polarisation assays a small probe gives low polarisation when free and higher when bound to something large.

Assay [2] relates to H929 multiple myeloma tumour line. Put plainly: In vitro cytotoxicity, Microculture Tetrazolium Assay. It is filed as cell-based. The method, then: The cytotoxicity studies were carried out on the H929 multiple myeloma tumour line.
The cells are distributed onto microplates and exposed to the test compounds for 48 hours.

Setting [3] is: fluorescence polarisation, Method 1, or Method 2.
Setting [4] is: Homo sapiens, NCI-H929, 48 h, H929 cells, 48 hours exposure, MTT, read-out: IC50 (μM) MTT H929.
Where [5] appears, read: fluorescence polarisation test, Method 2 values are underlined in the patent (underlining not visible here).
The mark [6] stands for this setting: H929 cells, 48 hours exposure, MTT, read-out: IC50 (μM) MTT H929.

Mcl-1 protein, sequence (Q07820 whole entry): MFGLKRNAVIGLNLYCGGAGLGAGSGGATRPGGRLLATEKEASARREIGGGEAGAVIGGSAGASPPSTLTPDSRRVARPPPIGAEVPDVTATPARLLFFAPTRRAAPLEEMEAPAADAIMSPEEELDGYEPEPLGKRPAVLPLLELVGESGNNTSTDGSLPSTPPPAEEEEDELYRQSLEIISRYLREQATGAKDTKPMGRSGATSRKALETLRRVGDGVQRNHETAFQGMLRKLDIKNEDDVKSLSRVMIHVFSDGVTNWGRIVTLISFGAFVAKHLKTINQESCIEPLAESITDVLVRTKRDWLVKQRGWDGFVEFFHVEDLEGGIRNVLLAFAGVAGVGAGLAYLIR

`CCc1sc2ncnc(OC(Cc3ccccc3)C(=O)O)c2c1-c1cc([N+](=O)[O-])c(OCCN2CCN(C)CC2)c(Cl)c1C` [Example 435, (2R)-2-[((5Sa)-5-{3-chloro-2-methyl-4-[2-(4-methylpiperazin-1-yl)ethoxy]-5-nitrophenyl}-6-ethylthieno[2,3-d]pyrimidin-4-yl)oxy]-3-phenylpropanoic acid]: the half-maximal inhibitory concentration (IC50) (usually the midpoint of a concentration-inhibition curve) was 3.2e-07 M in assay [1] (setting [3]) and 11.1 µM in assay [2] (setting [4]).
For the compound `COc1cc(-c2sc3ncnc(OC(Cc4ccccc4OCc4ccnc(C(F)(F)F)n4)C(=O)O)c3c2-c2ccc(OCCN3CCN(C)CC3)c(Cl)c2C)ccc1F` [Example 382, (2R)-2-{[(5Sa)-5-{3-chloro-2-methyl-4-[2-(4-methylpiperazin-1-yl)ethoxy]phenyl}-6-(4-fluoro-3-methoxyphenyl)thieno[2,3-d]pyrimidin-4-yl]oxy}-3-(2-{[2-(trifluoromethyl)pyrimidin-4-yl]methoxy}phenyl)propanoic acid], the IC50 in assay [1] (setting [5]) came to 7.1e-09 M; in assay [2] (setting [4]), 0.033 µM.
With `COc1ccccc1CC(Oc1ncnc2sc(-c3cccc(OC)c3F)c(-c3ccc(OCCN4CCN(C)CC4)c(Cl)c3C)c12)C(=O)O` [Example 561, (2R)-2-{[(5Sa)-5-{3-chloro-2-methyl-4-[2-(4-methylpiperazin-1-yl)ethoxy]phenyl}-6-(2-fluoro-3-methoxyphenyl)thieno[2,3-d]pyrimidin-4-yl]oxy}-3-(2-methoxyphenyl)propanoic acid], the IC50 was 2.7e-08 M in assay [1] (setting [3]) and 0.61 µM in assay [2] (setting [4]).
For `Cc1c(-c2c(-c3cccc(F)c3F)sc3ncnc(OC(Cc4ccccc4OCc4ccnc(C(F)(F)F)n4)C(=O)O)c23)ccc(OCCN2CCN(C)CC2)c1Cl` [Example 705, (2R)-2-{[(5Sa)-5-{3-chloro-2-methyl-4-[2-(4-methylpiperazin-1-yl)ethoxy]phenyl}-6-(2,3-difluorophenyl)thieno[2,3-d]pyrimidin-4-yl]oxy}-3-(2-{[2-(trifluoromethyl)pyrimidin-4-yl]methoxy}phenyl)propanoic acid] the same measures were 1.7e-08 M and 0.02 µM.
Turning to `CC#Cc1sc2ncnc(OC(Cc3ccccc3OC)C(=O)O)c2c1-c1ccc(OCCN2CCNCC2)c(Cl)c1C` [Example 684, (2R)-2-{[(5Sa)-5-{3-chloro-2-methyl-4-[2-(piperazin-1-yl)ethoxy]phenyl}-6-(prop-1-yn-1-yl)thieno[2,3-d]pyrimidin-4-yl]oxy}-3-(2-methoxyphenyl)propanoic acid], the results for the concentration for half-maximal inhibition (IC50) in assay [1] (setting [3]) and in assay [2] (setting [4]) were 1.9e-08 M and 2.23 µM, respectively.
For `COc1ccccc1CC(Oc1ncnc2sc(-c3ccc(Cl)cc3)c(-c3ccc(OCCN4CCN(C)CC4)c(Cl)c3C)c12)C(=O)O` [Example 539, (2R)-2-{[(5Sa)-5-{3-chloro-2-methyl-4-[2-(4-methylpiperazin-1-yl)ethoxy]phenyl}-6-(4-chlorophenyl)thieno[2,3-d]pyrimidin-4-yl]oxy}-3-(2-methoxyphenyl)propanoic acid] the same measures were 7.2e-08 M and 0.731 µM.
For `COc1ccccc1CC(Oc1ncnc2sc(C3CCCO3)c(-c3ccc(OCCN4CCN(C)CC4)c(Cl)c3C)c12)C(=O)O` (single isomer, unassigned) [Example 591, (2R)-2-{[(5Sa)-5-{3-chloro-2-methyl-4-[2-(4-methylpiperazin-1-yl)ethoxy]phenyl}-6-((2R or S)-tetrahydrofuran-2-yl)thieno[2,3-d]pyrimidin-4-yl]oxy}-3-(2-methoxyphenyl)propanoic acid] the same measures were 6.5e-08 M and 1.67 µM.
Regarding `Cc1ccc(-c2sc3ncnc(O[C@H](Cc4ccccc4)C(=O)O)c3c2-c2ccc(OCCN3CCN(C)CC3)c(Cl)c2C)s1` [Example 500, (2R)-2-{[(5Sa)-5-{3-chloro-2-methyl-4-[2-(4-methylpiperazin-1-yl)ethoxy]phenyl}-6-(5-methylthiophen-2-yl)thieno[2,3-d]pyrimidin-4-yl]oxy}-3-phenylpropanoic acid], the figures for the concentration for half-maximal inhibition (IC50) in assay [1] (setting [3]) and in assay [2] (setting [6]) were 8e-08 M and 2.25 µM, respectively.
Turning to `COc1ccccc1C[C@@H](Oc1ncnc2sc(-c3ccco3)c(-c3ccc(OCCN4CCN(C)CC4)c(F)c3C)c12)C(=O)O` (single isomer, unassigned) [Example 334], the concentration for half-maximal inhibition (IC50) in assay [1] (setting [5]) came to 1.4e-08 M; in assay [2] (Homo sapiens, NCI-H929, 48 h, read-out: IC50 (μM) MTT H929, H929 cells, 48 hours exposure, MTT), 0.968 µM.
For the compound `COc1ccccc1CC(Oc1ncnc2sc(-c3ccc(F)c(O)c3)c(-c3ccc(OCCN4CCN(C)CC4)c(Cl)c3C)c12)C(=O)O` [Example 534, (2R)-2-{[(5Sa)-5-{3-chloro-2-methyl-4-[2-(4-methylpiperazin-1-yl)ethoxy]phenyl}-6-(4-fluoro-3-hydroxyphenyl)thieno[2,3-d]pyrimidin-4-yl]oxy}-3-(2-methoxyphenyl)propanoic acid], the values for the concentration for half-maximal inhibition (IC50) in assay [1] (setting [3]) and in assay [2] (setting [4]) were 1.6e-08 M and 0.413 µM, respectively.
Consider `C#CCOc1ccccc1CC(Oc1ncnc2sc(-c3ccco3)c(-c3ccc(OCCN4CCN(C)CC4)c(Cl)c3C)c12)C(=O)O` [Example 216, (2R)-2-{[(5Sa)-5-{3-chloro-2-methyl-4-[2-(4-methylpiperazin-1-yl)ethoxy]phenyl}-6-(furan-2-yl)thieno[2,3-d]pyrimidin-4-yl]oxy}-3-[2-(prop-2-yn-1-yloxy)phenyl]propanoic acid], for which the IC50 is 8.5e-09 M in assay [1] (setting [5]) and 0.217 µM in assay [2] (setting [4]).
`Cc1c(-c2c(-c3ccc(Cl)s3)sc3ncnc(OC(Cc4ccccc4)C(=O)O)c23)ccc(OCCN2CCN(C)CC2)c1Cl` [Example 501, (2R)-2-{[(5Sa)-5-{3-chloro-2-methyl-4-[2-(4-methylpiperazin-1-yl)ethoxy]phenyl}-6-(5-chlorothiophen-2-yl)thieno[2,3-d]pyrimidin-4-yl]oxy}-3-phenylpropanoic acid]: the half-maximal inhibitory concentration (IC50) in assay [1] (setting [3]) was 2.8e-07 M; in assay [2] (setting [4]) it was 2.84 µM.
Take `COCCOc1ccccc1CC(Oc1ncnc2sc(-c3ccco3)c(-c3ccc(OCCN4CCN(C(C)C)CC4)c(Cl)c3C)c12)C(=O)O` [Example 671, (2R)-2-{[(5Sa)-5-(3-chloro-2-methyl-4-{2-[4-(propan-2-yl)piperazin-1-yl]ethoxy}phenyl)-6-(furan-2-yl)thieno[2,3-d]pyrimidin-4-yl]oxy}-3-[2-(2-methoxyethoxy)phenyl]propanoic acid]: the IC50 in assay [1] (setting [3]) was found to be 6.9e-09 M; in assay [2] (setting [4]), 0.107 µM.
With `COc1ccccc1CC(Oc1ncnc2sc(-c3ccco3)c(-c3ccc(OC4CCCN(C)C4)c(Cl)c3C)c12)C(=O)O` (single isomer, unassigned) [Example 302, (2R)-2-{[(5Sa)-5-{3-chloro-2-methyl-4-[((3S or R)-1-methylpiperidin-3-yl)oxy]phenyl}-6-(furan-2-yl)thieno[2,3-d]pyrimidin-4-yl]oxy}-3-(2-methoxyphenyl)propanoic acid], the IC50 in assay [1] (setting [5]) is 1.4e-08 M; in assay [2] (setting [6]), 1.59 µM.
As to `CC#Cc1sc2ncnc(OC(Cc3ccccc3OC)C(=O)O)c2c1-c1cc(OC)c(OCCN2CCN(C)CC2)c(Cl)c1C` [Example 477, (2R)-2-{[(5Sa)-5-{3-chloro-5-methoxy-2-methyl-4-[2-(4-methylpiperazin-1-yl)ethoxy]phenyl}-6-(prop-1-yn-1-yl)thieno[2,3-d]pyrimidin-4-yl]oxy}-3-(2-methoxyphenyl)propanoic acid], the figures for the 50% inhibitory concentration (IC50) in assay [1] (setting [3]) and in assay [2] (setting [4]) were 5.6e-08 M and 2.57 µM, respectively.
